# Source: US20060095978A1, “Screening assay” (priority 2002, published 2006)
# Experiments:
# Format in all cases: in vivo, mouse
# [1] = system: TNF-α; assay: Serum TNF-α in DO11.10 mice primed with OVA-peptide and challenged with LPS
# Procedure: (§1) Animals are provided as described in Example 2a).
# (§2) b) Administration of OVA323-339 (=OVA-peptide) and LPS Groups of six DO11.10 mice receive i.p. 30 μg of OVA323-339 peptide (98% purity, pi Chem R&D, Graz Austria) in 0.2 ml 0.9% saline per mouse. Control mice are injected i.p. with the same amount of saline.
# (§3) 18 hours later the mice are challenged i.p. with 100, 300 or 500 μg LPS (E. coli 0111: B4 Sigma Vienna, Austria). At 2, 4 and 6 hours after the LPS administration about 200 μl of blood are collected by puncture of the retro-orbital plexus under ether anesthesia. The sera are collected and stored frozen at −20° until analyzed.
# (§4) Murine IL-1α, IL-1β and TNF-α serum levels are determined by ELISAs (IL-1α and TNF-α, Bender MedSystems, Vienna Austria; IL-1β, Quantikine R&D Systems, Minneapolis, Minn.). Results are expressed as pg per ml serum. Differences in the serum cytokines concentrations between the different experimental groups are examined for statistical significance by the Mann-Whitney U test, two tailed. Results are expressed as the mean±SEM. p<0.05 is regarded as significant.
# The effects of various doses of LPS (100, 300, or 500 μg/mouse) on the production of TNF-α in the serum of non-sensitized DO11.10 mice or mice sensitized by i.p. injection of OVA-peptide (30 μg/mouse, 18 hours prior to LPS challenge) are given in TABLE 8. The TNF-α serum levels are expressed as mean pg per ml serum±SEM.
# [2] = system: IL-1β; assay: Serum IL-1β in DO11.10 mice primed with OVA-peptide and challenged with LPS
# Procedure: as §1, §2, §3, §4
# Values of serum IL-1β responses in control DO11.10 mice challenged with various doses of LPS (=NaCl+LPS) and in mice primed with the OVA-peptide 18 hours prior to the LPS challenge (=OVA+LPS) are given in TABLE 7. The serum IL-1β levels are expressed as mean pg per ml serum±SEM.
# [3] = system: IL-4; assay: Serum IL-4 in OVA323-339 stimulated DO11.10 mice (ELISA); conditions: for IL-4 level in pg/ml serum on day 0 after 0 hours: 0 hours (before injection)
# Procedure: Groups of six, 8-10 weeks old, male or female DO11.10 mice weighing between 20-22 g are obtained as described in Murphy K. M. et al. 1990, Science 250:1720-1722. The animals are maintained in Microvent positive air supply cages (22±1° C., 55±5% relative humidity, 50-70 changes of fresh air/hour and 12 hours day and night cycle) with sawdust bedding. Standard laboratory mouse chow (SNIFF, Soest, Germany) and drinking water is given ad libidum. The animals are used for the study after an adaptation period of 10-14 days and grouped (6 per group) in type II Macrolon cages one day before the experiment.
# Groups of six DO11.10 mice are i.p. injected with 10 μg of ovalbumin (OVA, Sigma, St. Louis, USA) absorbed to 2 mg of Al(OH)3 (Alu Gel S; 2% Al(OH)3, Serva, Heidelberg, FRG) and diluted with saline to a volume of 0.2 ml or various amounts (1, 3, 10, 30, or 90 μg per mouse) of alum-precipitated OVA323-339 peptide (98% purity, piChem R&D, Graz Austria) in 0.2 ml on days 0 and 14. Before and at different time points on days 0 and 14 after the OVA or OVA323-339 peptide administration about 200 μl of blood are collected by puncture of the retro-orbital plexus under ether anesthesia.
# The sera are collected and stored frozen at −20° C. until analyzed. […]
# Murine IL-2, IFN-γ and IL-4 are analyzed by immunoassays (Quantikine R&D Systems, Minneapolis, Minn., USA). Results are expressed as pg per ml serum expressed as mean±SEM pg of the cytokine indicated per ml serum. Test and control groups are evaluated by Dunn test by Kruskall-Wallis One Way Anova using the SigmaStat® program.
# Serum IL-4 levels after primary and secondary OVA323-339 peptide antigen stimulation are shown in TABLE 3: Groups of 6 mice receive various doses (1, 3, 10, 30 and 90 μg/mouse) of alum-precipitated OVA323-339 peptide i.p. on day 0 and 14. Animals of the control group are injected with alum. Blood is collected before and at 2, 4, and 6 hours after the first (A) and after the second peptide injection (B). IL-4 is determined in the sera by an ELISA. Results are expressed as mean pg per ml serum±SEM. […]
substance,measurement,setting,value
"OVA323-339: peptide derived from chicken ovalbumin containing amino acids from position 323 to 339 (KISQAVHAAHAEINEAG; UniProt P01012 323-339, looked up, fragment)",TNF-α in OVA-primed versus unprimed mice,"[1]; 100 μg LPS, 2 hours",9.7 fold
same,"change in TNF-α levels, OVA-primed versus unprimed","[1]; 100 μg LPS, 4 hours",no significant changes
same,TNF-α in OVA-peptide primed versus unprimed mice,"[1]; 300 μg LPS, 2 hours",7.8 fold
same,"difference in TNF-α levels, OVA-peptide primed versus unprimed","[1]; 300 μg LPS, 4 hours",no difference
same,TNF-α in OVA-peptide primed versus unprimed mice,"[1]; 500 μg LPS, 2 hours",5.2 fold
same,IL-1β in OVA-peptide primed versus unprimed mice,"[2]; 100 μg LPS, 2 hours",1.6 fold
same,IL-1β in OVA-peptide primed versus unprimed mice,"[2]; 100 μg LPS, 4 hours",1.7 fold
same,IL-1β in OVA-peptide primed versus unprimed mice,"[2]; 100 μg LPS, 6 hours",7.8 fold
same,IL-1β in OVA-peptide primed versus unprimed mice,"[2]; 300 μg LPS, 2 hours",1.9 fold
same,IL-1β in OVA-peptide primed versus unprimed mice,"[2]; 300 μg LPS, 4 hours",2.7 fold
same,IL-1β in OVA-peptide primed versus unprimed mice,"[2]; 300 μg LPS, 6 hours",3.0 fold
same,IL-1β in OVA-peptide primed versus unprimed mice,"[2]; 500 μg LPS, 2 hours",3.5 fold
same,IL-1β in OVA-peptide primed versus unprimed mice,"[2]; 500 μg LPS, 4 hours",2.2 fold
same,IL-1β in OVA-peptide primed versus unprimed mice,"[2]; 500 μg LPS, 6 hours",5.7 fold
same,IL-4 level in pg/ml serum on day 0 after 0 hours,[3]; 1 μg OVA323-339 i.p.,25.770 ± 2.618 pg/mL
same,IL-4 level in pg/ml serum on day 0 after 2 hours,[3]; 1 μg OVA323-339 i.p.,36.426 ± 5.871 pg/mL
same,IL-4 level in pg/ml serum on day 0 after 4 hours,[3]; 1 μg OVA323-339 i.p.,4.094 ± 1.072 pg/mL
same,IL-4 level in pg/ml serum on day 0 after 6 hours,[3]; 1 μg OVA323-339 i.p.,13.354 ± 4.010 pg/mL
same,change of IL-4 levels,"[3]; 1 μg of peptide, first injection",remain unchanged
same,IL-4 level in pg/ml serum on day 0 after 0 hours,[3]; 3 μg OVA323-339 i.p.,17.905 ± 3.616 pg/mL
same,IL-4 level in pg/ml serum on day 0 after 2 hours,[3]; 3 μg OVA323-339 i.p.,37.706 ± 4.028 pg/mL
same,IL-4 level in pg/ml serum on day 0 after 4 hours,[3]; 3 μg OVA323-339 i.p.,7.903 ± 0.957 pg/mL
same,IL-4 level in pg/ml serum on day 0 after 6 hours,[3]; 3 μg OVA323-339 i.p.,11.051 ± 2.549 pg/mL
same,increase of serum IL-4 levels compared to alum control,"[3]; 3 μg of peptide, after 2 hours",only slightly
same,IL-4 level in pg/ml serum on day 0 after 0 hours,[3]; 10 μg OVA323-339 i.p.,16.296 ± 3.397 pg/mL
same,IL-4 level in pg/ml serum on day 0 after 2 hours,[3]; 10 μg OVA323-339 i.p.,41.870 ± 9.751 pg/mL
same,IL-4 level in pg/ml serum on day 0 after 4 hours,[3]; 10 μg OVA323-339 i.p.,18.804 ± 1.757 pg/mL
same,IL-4 level in pg/ml serum on day 0 after 6 hours,[3]; 10 μg OVA323-339 i.p.,5.735 ± 2.226 pg/mL
same,increase of serum IL-4 levels compared to alum control,"[3]; 10 μg of peptide, after 2 hours",only slightly
same,IL-4 level in pg/ml serum on day 0 after 0 hours,[3]; 30 μg OVA323-339 i.p.,16.524 ± 2.209 pg/mL
same,IL-4 level in pg/ml serum on day 0 after 2 hours,[3]; 30 μg OVA323-339 i.p.,93.594 ± 29.015 pg/mL
same,IL-4 level in pg/ml serum on day 0 after 4 hours,[3]; 30 μg OVA323-339 i.p.,41.725 ± 10.226 pg/mL
same,IL-4 level in pg/ml serum on day 0 after 6 hours,[3]; 30 μg OVA323-339 i.p.,17.173 ± 2.069 pg/mL
same,rise of serum IL-4 levels,"[3]; 30 μg of peptide, at 2 hours",3 fold
same,IL-4 level in pg/ml serum on day 0 after 2 hours,[3]; 90 μg OVA323-339 i.p.,273.017 ± 95.997 pg/mL
same,IL-4 level in pg/ml serum on day 0 after 4 hours,[3]; 90 μg OVA323-339 i.p.,146.940 ± 21.784 pg/mL
same,IL-4 level in pg/ml serum on day 0 after 6 hours,[3]; 90 μg OVA323-339 i.p.,127.616 ± 7.397 pg/mL
same,rise of serum IL-4 levels,"[3]; 90 μg peptide, after 4 and 6 hours",7-8 fold
same,increase of serum IL-4 levels,"[3]; 90 μg peptide, after 2 hours",14 fold
same,rise in the IL-4 levels after the second antigen stimulation,[3]; second antigen stimulation (day 14),up to several 100 fold
same,change of IL-4 levels compared to the control,[3]; second injection of 1 μg of peptide 2 weeks later,does not change
